Values quoted from earlier work, collected in US5525634A, “Colonic drug delivery system” (priority 1994, dated 1996).

Tests used:
[1] = small intestinal mucosa / esterases
morphine-dependent rats = conditions: for time to diarrhea: direct colonic administration; for time to diarrhea / time to diarrhea, withdrawal behavior and tail skin temperature response: morphine-dependent rats; for time to diarrhea, withdrawal behavior and tail skin temperature response: oral administration

CC(=O)Oc1ccc(C(c2ccc(OC(C)=O)cc2)c2ccccn2)cc1 [bisacodyl]
passage through / cleavage in the small intestine [1]: readily cleaved by the esterases in the small intestine

C=C1CCC2(O)C3Cc4ccc(OC5OC(C(=O)O)C(O)C(O)C5O)c5c4C2(CCN3CC2CC2)C1O5 (stereo not shown) [nalmefene glucuronide]
time to diarrhea (morphine-dependent rats): 5 to 8 min | activity on subcutaneous administration (morphine-dependent rats): inactive

C=C1CC[C@@]2(O)[C@H]3Cc4ccc(O)c5c4[C@@]2(CCN3CC2CC2)[C@H]1O5 [nalmefene]
time to diarrhea, withdrawal behavior and tail skin temperature response (morphine-dependent rats): ≤ 15 min

C=CCN1CC[C@]23c4c5ccc(O[C@@H]6O[C@H](C(=O)O)[C@@H](O)[C@H](O)[C@H]6O)c4O[C@H]2C(=O)CC[C@@]3(O)[C@H]1C5 [naloxone glucuronide]
time to diarrhea (morphine-dependent rats): 5 to 8 min | activity on subcutaneous administration (morphine-dependent rats): inactive

C=CCN1CC[C@]23c4c5ccc(O)c4O[C@H]2C(=O)CC[C@@]3(O)[C@H]1C5 [naloxone]
time to diarrhea, withdrawal behavior and tail skin temperature response (morphine-dependent rats): ≤ 15 min
